Laboratory results reported in patent US20230277459A1, “PHARMACEUTICAL COMPOSITIONS HAVING HIGH DRUG LOADINGS OF MEDIUM CHAIN TRIGLYCERIDES AND METHODS RELATED THERETO” (CERECIN INC., priority 2017, published 2023).

Test: In-vitro digestion pH titration
Assay type: in vitro ADME
Conditions: FIG. 9
Source text: The digestion pH titration curves for both compositions, as well as control samples F-11 and the Miglyol 808 oil are shown in FIG. 9.

Structure (SMILES): CCCCCCCC(=O)OCC(COC(=O)CCCCCCC)OC(=O)CCCCCCC [Miglyol 808 oil, caprylic triglyceride]
- digestion pH titration curve: sigmoidal titration curve, and is slower to reach the endpoint
